Square brackets hold non-standard residues; d marks the D form. Peptide text beside a SMILES is read from it. * marks the point of attachment. Nle = CCCC[C@H](N)C(=O)O; Cbz = O=C(OCc1ccccc1)*
Assays:
[1] = test system: MDA-MB231 breast cancer cells; assay: Extracellular matrix invasion of MDA-MB231 cells (Matrigel Invasion Chambers); type: cell-based, human; settings: siRNA transfection, 22 hours
Procedure: Cytotoxicity and growth of transfected cells were estimated by a standard assay used for cancer drug screening, through the total amount of TCA-precipitated cell proteins after drug treatment (Likhitwitayawuid, K et al., 1993, J Nat Prod 56:30-38): 200 μl of cell suspension (10^5 cells/ml) were added to each well in a 96-well plate. After incubation at, 37° C., in 5% CO2 (30 minutes to 72 hours depending on the time course chosen), 50 μl 50% trichloroacetic acid was added to each well. After incubation at 4° C. for 1 hour, precipitates were washed with water 4-5 times and air dried overnight. One hundred μl of SRB solution (0.4% sulforhodamine B in 1% acetic acid, filtered before use) was added to each well for 30 minutes. Wells were washed with 1% acetic acid 4-5 times and air dried. Two hundred μl 10 mM Tris base was added to each well. Plates were shaken for 5-10 minutes and OD at 490 nm (OD490) was recorded via ELISA reader. To assay matrix invasion, 300 μl of cell suspension (10^6 cells/mL in serum-free medium) were added to invasion inserts (BioCoat Matrigel Invasion Chambers, Becton Dickinson, Bedford, Mass.) and incubated for 22 hours at 37° C., 5% CO2. Cells were stained with 0.9% crystal violet in 10% ethanol for 20 minutes. Inserts were dipped in water several times and air dried. After removal of the non-invading cells from the interior of the inserts, stained invading cells were lysed in 10% acetic acid and OD595 was determined.
Notch silencing was confirmed by Western blot as described above in Example 15 using commercial goat polyclonal antibodies from Santa Cruz Biotechnology to Notch-1 (C-20, Cat# sc-6014 S). For the Western blot analyses, MDA-MB231 cells were treated with 25 μM IL-X for 48 h or with 0.5, 1 or 2 μM z-Leu-Leu-Nle-CHO for 24 h. Cytotoxicity and matrix invasion assays were performed as described above in Example 15. For the cytotoxicity assays, MDA-MB231 cells were treated with […] IL-X for up to 3 days or with 0-20 μM z-Leu-Leu-Nle-CHO for up to 4 days. […]

[2] = test system: SAOS-2 osteosarcoma cells; assay: z-Leu-Leu-Nle-CHO on NOXA and apoptosis in SAOS-2 osteosarcoma cells; type: cell-based; settings: 10 μM
RJ002L melanoma cells = assay: Bortezomib in RJ002L melanoma cells: sub-G0 DNA content by FACS and kinetic analysis; type: cell-based, human
Procedure: To assess the effect of proteasome inhibitors on the cell lines, the cells were grown in suitable culture media as described above. Highly proliferating cells (i.e., cells that had reached approximately 30% confluency) were exposed to the inhibitors as described below. The culture media was replenished with media containing proteasome inhibitors at various concentrations and the cells were incubated for 24 hours prior to harvesting the cells for further analysis.
Following treatment with the proteasome inhibitors, the melanoma and melanocyte cell cultures were assayed for apoptotic cells using the APO TARGET Annexin V FITC staining kit (Biosource, Camarillo, Calif.) according to the manufacturer's instructions followed by flow cytometric analysis using FACScaliber (Becton Dickinson, Palo Alto, Calif.) as described in Qin, J. et al., 2001, Nat Med 7: 385-386. In some cases, cell cycle and apoptosis analysis was measured using propidium iodide staining and flow cytometry as described. Cells with DNA content less than the G0 amount of untreated cells were considered apoptotic. For cell analysis, DNA histograms were analyzed using MultiCycle for Windows (Phoenix Flow Systems, San Diego, Calif.) as described in Denning, M. F. et al., 1998, J Biol Chem 273: 29995-30002.
The ability of bortezomib to induce apoptosis in RJ002L cells was assayed by kinetic analysis. RJ002L cells were incubated with 1.0 μM bortezomib for 24 hours. At various time points during the 24 hours, the cells were assayed for apoptosis using APO TARGET Annexin V-FITC staining kits (Biosource, Camerillo, Calif.) according to manufacturer's instructions. The relative percentage of cells undergoing apoptosis was quantified by flow cytometric analysis using FACSCaliber (Becton Dickinson, Palo Alto, Calif.) as described in Qin J et al., 2004, Mol Cancer Ther 3:895-902.

C8161 melanoma tumors = assay: C8161 melanoma xenograft in Nude mice, peri-tumoral bortezomib

5′-AAGTGTCTGAGGCCAGCAAGA-3′ [Notch-1 siRNA]
extracellular matrix invasion [1]: significantly inhibited extracellular matrix invasion

CCCC[C@@H](C=O)NC(=O)[C@H](CC(C)C)NC(=O)[C@H](CC(C)C)NC(=O)OCc1ccccc1 [z-Leu-Leu-Nle-CHO, N-benzyloxycarbonyl-leucyl-leucyl-norleucinal] (Cbz-Leu-Leu-[Nle]-aldehyde)
NOXA expression ([2]; SAOS-2, p53 null): induced expression of NOXA | dead cells ([2]; SAOS-2, after 24 hrs, data not shown): > 50%

CC(C)C[C@H](NC(=O)[C@H](Cc1ccccc1)NC(=O)c1cnccn1)B(O)O [bortezomib, N-(2-pyrazine)carbonyl-L-phenylalanine-L-leucine boronic acid]
cells with sub-G0 DNA content by FACS analysis (RJ002L melanoma cells; 0.01 μM, 24 hours): 2% | apoptotic cells (RJ002L melanoma cells; 0.1 μM, 24 hours): 20% | apoptotic cells (RJ002L melanoma cells; 1 μM or 10 μM, 24 hours): 29-30% | kinetic analysis of apoptosis (RJ002L melanoma cells; 1.0 μM, up to 24 hours): prominent apoptosis was detected at 18- and 24-hr time points | increase in apoptotic cells, 0.1 μM versus 0.01 μM (RJ002L melanoma cells; 24 hours): 10 fold | tumor growth (C8161 melanoma tumors; 1.25 mg/kg or 2.5 mg/kg, four peri-tumoral injections, compared to PBS): regression of melanoma tumors occurred | tumor weight (C8161 melanoma tumors; 1.25 mg/kg versus PBS, day 20): significant (p<0.01) reduction in tumor weight | histological appearance of tumor (H&E) (C8161 melanoma tumors; 2.5 mg/kg): scattered apoptotic C8161 cells are present | tumor weight (C8161 melanoma tumors; 2.5 mg/kg dose compared with 1.25 mg/kg): no further reduction was apparent

— patent publication US20080220416A1, “Compositions for Inhibiting Cell Growth and Inducing Apoptosis in Cancer Cells and Methods of Use Thereof” (THE BOARD OF TRUSTEES OF THE UNIVERSITY OF ILLINOI, priority 2004, published 2008)
